Source: patent publication US20220354929A1, “PEPTIDES AND USES THEREOF” (LATERAL IP PTY LTD, priority 2019, published 2022)
“And” between values parts separate entries of the source, which are not always exact repeats. Equal values may be shown once. “Also recorded” adds a separate entry of the source.

Columns and labels:
[1] = system: dorsal root afferent-mediated synaptic inputs to dorsal horn neurones; test: whole-cell recording in spinal cord slices from Chung models: dorsal root afferent-mediated synaptic inputs (evoked EPSPs/IPSPs); format: cell-based, rat; conditions: for effect on dorsal root-evoked EPSPs / excitatory synaptic transmission (in words) / effect on dorsal root-evoked IPSPs / inhibitory synaptic transmission (in words): peptide 5 μM, dorsal root stimulation 0.1 Hz
Experimental: (§1) An in vitro spinal cord slice with intact dorsal root afferents combined with single-cell whole-cell patch clamp electrophysiological recording techniques was used to assess the electrophysiological properties of the peptides having the amino acid sequence of SEQ ID NO:2, 3, 4 and 5.
(§2) Chung model rats, aged 8 to 12 weeks, were housed in an air-conditioned room on a 12 hour light/dark cycle with food and water available ad libitum. The rats were terminally anaesthetized using isofluorane and decapitated. The vertebral column, rib cage and surrounding tissues were rapidly removed and pinned under ice-cold (<4° C.), high sucrose-containing artificial cerebrospinal fluid (aCSF) comprising: 127 mM sucrose, 1.9 mM KCl, 1.2 mM KH2PO4, 0.24 mM CaCl2, 3.9 mM MgCl2, 26 mM NaHCO3, 10 mM D-glucose and 0.5 mM ascorbic acid. A laminectomy was performed and the spinal cord and associated roots gently dissected and teased out of the spinal column and surrounding tissues. Dura and pia mater and ventral roots were subsequently removed with fine forceps and the spinal cord hemisected. Care was taken to ensure dorsal root inputs to the spinal cord were maintained. The hemisected spinal cord-dorsal root preparations were secured to a tissue slicer and spinal cord slices (400 to 450 μm thick) with dorsal roots attached were cut in chilled (<4° C.) high sucrose aCSF using a Leica VT1000s microtome.
(§3) Slices were transferred to a small beaker containing ice cold aCSF with 127 mM NaCl, 1.9 mM KCl, 1.2 mM KH2PO4, 1.3 mM MgCl2, 2.4 mM CaCl2, 26 mM NaHCO3 and 10 mM D-glucose, and rapidly warmed to 35° C. ±1° C. in a temperature-controlled water bath over a 20 minute period, then subsequently removed and maintained at room temperature (22° C. ±2° C.) prior to electrophysiological recording. Electrophysiological recording was performed in aCSF comprising 127 mM NaCl, 1.9 mM KCl, 1.2 mM KH2PO4, 1.3 mM MgCl2, 2.4 mM CaCl2, 26 mM NaHCO3 and 10 mM D-glucose.
Whole-cell recordings were performed at 34-35° C. from Lamina I or II neurones in the dorsal horn of the spinal cord slices using Axopatch 1D and/or Multiclamp 700B amplifies and using the “blind” version of the patch-clamp technique.
Patch pipettes were pulled from thin-walled borosilicate glass with resistances of between 3 and 8 MS2 when filled with intracellular solution (140 mM potassium gluconate, 10 mM KCl, 1 mM EGTA-Na, 10 mM HEPES, 4 mM Na2ATP, 0.3 mM Na-GTP). The peptides of SEQ ID NOs:2, 3, 4 or 5 (LAT7771, LAT7772, LAT7773 or LAT7774) were diluted in the tissue bath at a concentration of 5 μM.
A concentric bipolar stimulating electrode was placed appropriately either on the dorsal root or dorsal root entry zone to evoke postsynaptic potentials/currents in recorded cells (see FIG. 1). […] EPSPs/EPSCs were confirmed as monosynaptic on the basis of being characterised by a constant latency and rise-time with few failures.
Recordings were monitored on an oscilloscope and stored on digital audio tapes for later off-line analysis. In addition, data were low-pass filtered at 2-5 kHz, (1 kHz for voltage-clamp data), digitized at 2-10 kHz and stored on a PC running pCLAMP 10 data acquisition software (Axon Instruments). Analysis of electrophysiological data was carried out using Clampfit 10 software.

[2] = system: dorsal horn neurones; test: whole-cell patch clamp recording in spinal cord slices from Chung models of neuropathic pain: membrane properties of dorsal horn neurones; format: cell-based, rat; conditions: for Membrane Potential, mean in presence of peptide: ipsilateral to injury; for Normalised Input Resistance, mean in presence of peptide / Normalised Input Resistance, ΔIR: control = 100; for reversal potential of peptide-induced response (intersection of VI relations): individual neurones; for Normalised Membrane Potential, mean in presence of peptide / Normalised Membrane Potential, ΔVm: rest = 100
From the text: as §1
The spinal nerve ligation model (Chung model) was first reported by Kim and Chung (1992; Pain, 50(3):355-63) and involves a single tight ligation of the L5 spinal nerve. […] This model has been used as a “gold standard” model for assessing the efficacy of novel compounds targeting neuropathic pain.
Adult male Sprague-Dawley rats, 8-9 weeks old, weighing 220-250 g at the time of surgery, were purchased from Charles River UK Ltd. The animals were housed in groups of 4 in an air-conditioned room on a 12-hour light/dark cycle. Food and water were available ad libitum. They were allowed to acclimatise to the experimental environment for three days by leaving them on a raised metal mesh for at least 40 min. The baseline paw withdrawal threshold (PWT) was examined using a series of graduated von Frey hairs for 3 consecutive days before surgery and re-assessed on the 6th to 8th day after surgery and on the 12th to 14th day after surgery before drug dosing. Each rat was anaesthetized with 5% isoflurane mixed with oxygen (2L per min) followed by an intramuscular (i.m.) injection of ketamine 90 mg/kg plus xylazine 10 mg/kg. The back was shaved and sterilized with povidone-iodine. The animal was placed in a prone position and a para-medial incision was made on the skin covering the L4-6 level. The L5 spinal nerve was carefully isolated and tightly ligated with 6/0 silk suture. The wound was then closed in layers after a complete hemostasis. A single dose of antibiotics (Amoxipen, 15 mg/rat, i.p.) was routinely given for prevention of infection after surgery. The animals were placed in a temperature-controlled recovery chamber until fully awake before being returned to their home cages.
as §2, §3
Whole-cell recordings were performed at 34-35° C. from Lamina I or II neurones in the dorsal horn of the spinal cord slices using Axopatch 1D and/or Multiclamp 700B amplifies and using the “blind” version of the patch-clamp technique. […]

[3] = system: Chung model of neuropathic pain; test: paw withdrawal threshold (von Frey) in Chung model of neuropathic pain, oral or intramuscular administration; format: in vivo, rat; conditions: for paw withdrawal threshold (PWT) / reversal of mechanical allodynia: 2 hours after administration, ipsilateral side
From the text: Chung model of neuropathic pain was used to compare the in vivo efficacy of LAT8881 and LAT7771 administered orally or intramuscularly.
The spinal nerve ligation model (Chung model) was first reported by Kim and Chung (1992; Pain, 50(3):355-63) and involves a single tight ligation of the L5 spinal nerve. […] This model has been used as a “gold standard' model for assessing the efficacy of novel compounds targeting neuropathic pain.
Adult male Sprague-Dawley rats, 8-9 weeks old, weighing 220-250 g at the time of surgery, were anaesthetised with 3% isoflurane mixed with oxygen followed by an intramuscular injection of a mixture of ketamine and xylazine. The back was shaved and sterilised with povidone-iodine soaked cotton balls. The L5 spinal nerve was carefully isolated and tightly located with 6/0 silk suture and the wound was closed in layers. The single-dose antibiotics (Amoxipen, 100 mg/kg, i.p.) was routinely given for prevention of infection after surgery.
The animals were placed in individual Perspex boxes on a raised metal mesh for at least 40 minutes. Starting with the filament of lowest force (1 g), each filament was applied perpendicularly to the centre of the ventral surface of the paw until slightly bent for 6 seconds. If the animal withdrew or lifted its paw upon stimulation, a von Frey hair with force immediately lower than that tested was subsequently used. If no response was observed, then a hair with force immediately higher was tested. The lowest amount of force required to induce reliable responses (positive in 2 out of 3 trials) was recorded as the value of […] (PWT).
PWT was assessed once daily for three days before surgery and once a week for monitoring the development of mechanical allodynia.
All drug tests were carried out on the 13th to 17th day after surgery. All drug dosing was ‘blindly’ carried out by a second experimenter. The test compounds were administered and PWT was assessed before and 2 hours following drug or vehicle (5% DMSO) administration.

[4] = solubility in distilled water
[5] = LAT8881, concentration not given, one neurone

Sequence	effect on dorsal root-evoked EPSPs / excitatory synaptic transmission (in words) [1]	effect on dorsal root-evoked IPSPs / inhibitory synaptic transmission (in words) [1]	effect on inward rectification (in words) ([2]; peptide 5 μM)	effect on neuronal input resistance (in words) ([2]; peptide 5 μM)	Input Resistance, mean in presence of peptide ([2]; peptide 5 μM, all cells)	Membrane Potential, mean in presence of peptide ([2]; peptide 5 μM, all cells)	Normalised Input Resistance, mean in presence of peptide ([2]; peptide 5 μM)	Normalised Input Resistance, ΔIR ([2]; peptide 5 μM)	reversal potential of peptide-induced response (intersection of VI relations) ([2]; peptide 5 μM)	Normalised Membrane Potential, mean in presence of peptide ([2]; peptide 5 μM)	Normalised Membrane Potential, ΔVm ([2]; peptide 5 μM)	paw withdrawal threshold (PWT) / reversal of mechanical allodynia ([3]; 10 mg/kg intramuscularly (IM))	paw withdrawal threshold (PWT) / reversal of mechanical allodynia ([3]; 10 mg/kg orally (PO))	other results
CRIIHNNNC [LAT7771, C-terminal fragment of human prolactin spanning residues 219-227 of human prolactin precursor]	In four neurones, dorsal root evoked EPSPs at a frequency of 0.1 Hz were reduced; also recorded: consistently reduced dorsal root-evoked EPSPs; also recorded: EPSPs were suppressed	In two of these neurones, suppression of EPSPs uncovered or activated IPSPs; also recorded: in two neurones promoted inhibitory synaptic transmission; also recorded: enhanced inhibitory synaptic transmission	enhancement or increase in the strength of inward rectification; also recorded: enhanced inward rectification	little change in neuronal input resistance; also recorded: marginal increase in neuronal input resistance	447.6 MΩ	−53.8±2.8 mV and −53.8 mV	94.8	5.2	−55 mV (2×) and −45 mV and −40 mV	94.8	5.2	significantly increased the PWT	significantly increased the PWT	effect on dorsal root-evoked IPSPs (in words) ([1]; prolactin 500 nM, 0.1 Hz and 5 Hz): lack of effect; effect on membrane potential / postsynaptic membrane properties (in words) ([2]; peptide 5 μM): little effect on a further 3 dorsal horn neurones; also recorded: principally induced membrane depolarisation; also recorded: membrane depolarisation and an increase in spontaneous firing; also recorded: minimal membrane depolarisation; also recorded: little or no effect on postsynaptic properties; change in neuronal input resistance ([2]; peptide 5 μM vs control): 15.8 ± 36.1 MΩ; ΔIR, change in neuronal input resistance ([2]; peptide 5 μM vs control, table prints control minus drug, text the magnitude): −15.8 MΩ; neuronal input resistance in the presence of peptide ([2]; peptide 5 μM, all cells): 447.6±119.4 MS2; analgesic properties in vivo ([3]; compared with LAT8881): comparable to that of LAT8881
CRIVYDSNC [LAT7773, C-terminal fragment of canine prolactin, residues 221-229 of canis lupus familiaris prolactin precursor]	In three neurones electrical stimulation of dorsal roots (0.1 Hz) evoked EPSPs that were suppressed; also recorded: In two other neurones EPSPs, and in one of these IPSPs, were enhanced; also recorded: remaining two neurones showed no change; also recorded: in some neurones depressed whilst in others they were clearly potentiated; also recorded: reducing dorsal root afferent-mediated synaptic inputs; also recorded: little effect on dorsal root afferent-mediated excitatory synaptic transmission; also recorded: increase in dorsal root afferent-mediated synaptic transmission	in one of these IPSPs, were enhanced; also recorded: both EPSPs and IPSPs were enhanced	enhancing inward rectification; also recorded: enhanced inward rectification	variable effects on input resistance inducing a decrease in 4 neurones and an increase in 5 neurones; also recorded: small increase in neuronal input resistance	373.5±103.6 MΩ and 373.5 MΩ	−50.3±3.0 mV and −50.3 mV	99.9	0.1	no clear reversal potential in 7 neurones; also recorded: around −93 mV; also recorded: around −92 mV	88.4	11.6	–	–	solubility in distilled water [4]: soluble; membrane hyperpolarisation in individual neurones ([2]; peptide 5 μM, responding neurones): 7.6 mV
YLRIVQCRSVEGSCGF [LAT8881, human growth hormone derived analgesic compound of PCT/AU2019/050020, reference compound]	–	–	–	–	–	–	–	–	–	–	–	reversed mechanical allodynia; also recorded: significantly increased the PWT	reversed mechanical allodynia; also recorded: significantly increased the PWT	effect on dorsal root-evoked EPSPs (in words) [1, 5]: suppressing EPSPs; effect on inhibitory synaptic transmission / IPSPs (in words) [1, 5]: partly mimicked by LAT8881; also recorded: enhanced inhibitory synaptic transmission; effect on postsynaptic properties (in words) ([2]; LAT8881, concentration not given, one neurone, after wash of LAT7771): little or no effect on postsynaptic properties
